For this experiment, the system named is BDF1 mice, P388 leukemia ip, median survival T/C. The experiment is described as follows: NCI In Vivo Anticancer Drug Screen. Data for tumor model P388 Leukemia (intraperitoneal) in B6D2F1 (BDF1) mice. The note with it: endpoint: median survival time, higher = longer survival. Summed up: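 Mice carrying the transplantable tumour receive compound or vehicle. Survival is followed in each arm, and the treated measure is divided by the vehicle measure.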

Where [1] appears, read: dose: 50.0 mg/kg/injection, schedule: Q01DX009 (ip), vehicle: Klucel (hydroxypropylcellulose) (HPC).
Where [2] appears, read: dose: 100.0 mg/kg/injection, schedule: Q01DX009 (ip), vehicle: Klucel (hydroxypropylcellulose) (HPC).
[3] abbreviates: dose: 100.0 mg/kg/injection, schedule: Q04DX003 (ip), vehicle: Klucel (hydroxypropylcellulose) (HPC).
Setting [4] is: dose: 200.0 mg/kg/injection, schedule: Q01DX009 (ip), vehicle: Klucel (hydroxypropylcellulose) (HPC).
Where [5] appears, read: dose: 200.0 mg/kg/injection, schedule: Q04DX003 (ip), vehicle: Klucel (hydroxypropylcellulose) (HPC).
[6] abbreviates: dose: 50.0 mg/kg/injection, schedule: Q01DX009 (ip), vehicle: saline.
The mark [7] stands for this setting: dose: 100.0 mg/kg/injection, schedule: Q04DX003 (ip), vehicle: saline with Tween-80.
[8] abbreviates: dose: 200.0 mg/kg/injection, schedule: Q04DX003 (ip), vehicle: saline with Tween-80.
Setting [9] is: dose: 50.0 mg/kg/injection, schedule: Q01DX009 (ip), vehicle: saline with Tween-80.
Where [10] appears, read: dose: 100.0 mg/kg/injection, schedule: Q01DX009 (ip), vehicle: saline with Tween-80.
Setting [11] is: dose: 100.0 mg/kg/injection, schedule: Q04DX003 (ip), vehicle: saline.
Where [12] appears, read: dose: 100.0 mg/kg/injection, schedule: Q01DX001 (ip), vehicle: saline with Tween-80.
[13] abbreviates: dose: 200.0 mg/kg/injection, schedule: Q01DX001 (ip), vehicle: saline with Tween-80.
The mark [14] stands for this setting: dose: 400.0 mg/kg/injection, schedule: Q01DX001 (ip), vehicle: saline with Tween-80.
The mark [15] stands for this setting: dose: 200.0 mg/kg/injection, schedule: Q01DX009 (ip), vehicle: saline with Tween-80.

This passage reports T/C results from PubChem BioAssay AID328 (DTP/NCI, 2004).

Values joined by “and” are separate entries in the source; they are usually repeats but may differ in a detail not shown here. Equal values may be shown once. Toxic doses and inconclusive results are not listed.

Consider `CN(C)CCCNC1=C(Cl)C(=O)c2ccccc2C1=O`, for which the T/C runs as follows: (dose: 6.25 mg/kg/injection, schedule: Q01DX009 (ip), vehicle: Klucel (hydroxypropylcellulose) (HPC)) 114 % of control; (dose: 12.5 mg/kg/injection, schedule: Q01DX009 (ip), vehicle: Klucel (hydroxypropylcellulose) (HPC)) 109 % of control; (dose: 25.0 mg/kg/injection, schedule: Q01DX009 (ip), vehicle: Klucel (hydroxypropylcellulose) (HPC)) 116 % of control.
`COc1cc(C=Nc2ccc(-c3nc(C)sc3C)cc2)ccc1N(CCCl)CCCl`: the T/C reads like this: (dose: 16.5 mg/kg/injection, schedule: Q04DX003 (ip), vehicle: Klucel (hydroxypropylcellulose) (HPC)) 300 % of control; (dose: 25.0 mg/kg/injection, schedule: Q04DX003 (ip), vehicle: Klucel (hydroxypropylcellulose) (HPC)) 231 % of control and 300 % of control; (dose: 37.5 mg/kg/injection, schedule: Q04DX003 (ip), vehicle: Klucel (hydroxypropylcellulose) (HPC)) 300 % of control.
As to `CCCCN1C(=O)C2CC=C3C=CN4C(C3C2C1=O)C1C(=O)N(CCCC)C(=O)C1C41CC(=O)N(CCCC)C1=O` (stereo unspecified), the T/C under setting [1] is 104 % of control; the T/C under setting [2] was 100 % of control; the T/C under setting [3] is 100 % of control; the T/C under setting [4] is 90 % of control; the T/C under setting [5] was 91 % of control.
Turning to `CN(C)Nc1ncnc2nc[nH]c12`, the T/C is, setting by setting: under setting [6], 95 % of control; (dose: 100.0 mg/kg/injection, schedule: Q01DX009 (ip), vehicle: saline) 91 % of control; under setting [7], 100 % of control; under setting [8], 114 % of control.
As for `C=C(C)CNc1ccccc1`, the T/C runs as follows: (dose: 25.0 mg/kg/injection, schedule: Q01DX009 (ip), vehicle: saline with Tween-80) 119 % of control; under setting [9], 123 % of control; under setting [10], 103 % of control and 123 % of control.
On to `C/C=C/c1ccc2ccc[n+](C)c2c1O`, for which the T/C is 100 % of control (dose: 22.0 mg/kg/injection, schedule: Q04DX003 (ip), vehicle: saline sonified); 110 % of control (dose: 25.0 mg/kg/injection, schedule: Q04DX003 (ip), vehicle: saline sonified); 113 % of control (dose: 33.0 mg/kg/injection, schedule: Q04DX003 (ip), vehicle: saline sonified); 118 % of control (dose: 75.0 mg/kg/injection, schedule: Q04DX003 (ip), vehicle: saline sonified).
`C=CCOB(OCC=C)OCC=C`: the T/C (dose: 12.5 mg/kg/injection, schedule: Q04DX003 (ip), vehicle: saline) is 108 % of control; the T/C (dose: 25.0 mg/kg/injection, schedule: Q04DX003 (ip), vehicle: saline) is 100 % of control; the T/C (dose: 50.0 mg/kg/injection, schedule: Q04DX003 (ip), vehicle: saline) is 91 % of control.
In the case of `CC(=O)OCC(=O)[C@@]1(O)CC[C@H]2[C@@H]3CCC4=CC(=O)C=C[C@]4(C)[C@H]3[C@@H](O)C[C@@]21C`, the T/C (dose: 25.0 mg/kg/injection, schedule: Q01DX009 (ip), vehicle: saline) was 91 % of control; the T/C under setting [6] is 91 % of control; the T/C under setting [11] is 109 % of control.
`CCCCCOc1cc(C(C)=O)cc(OC)c1OC(=O)c1cc([N+](=O)[O-])cc([N+](=O)[O-])c1`: the T/C under setting [12] is 100 % of control, the T/C under setting [13] is 90 % of control and the T/C under setting [14] is 90 % of control.
With `N#Cc1nc2c(n(O)c1=N)CCCCCCCCCC2`, the T/C is, setting by setting: under setting [9], 95 % of control; under setting [10], 92 % of control; under setting [15], 92 % of control.
On to `CCOc1ccccc1NC(=O)c1ccc(Cl)cc1`, for which the T/C runs as follows: under setting [12], 90 % of control; under setting [13], 90 % of control; under setting [14], 95 % of control.
For `O=C(NNC(=O)OCc1ccccc1)OCc1ccccc1`, the T/C is 96 % of control under setting [1]; 96 % of control under setting [2]; 90 % of control under setting [3]; 92 % of control under setting [4]; 109 % of control under setting [5].
In the case of `CN1CCN(c2nc3cccnc3s2)CC1`, the T/C under setting [11] was 93 % of control.
For `Cc1ccc(S(=O)CC(Cl)c2ccccc2)cc1` (stereo unspecified), the T/C reads like this: (dose: 50.0 mg/kg/injection, schedule: Q01DX009 (ip), vehicle: other) 105 % of control; (dose: 100.0 mg/kg/injection, schedule: Q01DX009 (ip), vehicle: other) 106 % of control; (dose: 200.0 mg/kg/injection, schedule: Q01DX009 (ip), vehicle: other) 100 % of control.
With `OC1c2cc(Cl)ccc2-c2c(Cl)cc(Cl)cc21` (stereo unspecified), the T/C is 104 % of control under setting [9]; 100 % of control under setting [10]; 91 % of control under setting [7]; 108 % of control under setting [15]; 100 % of control under setting [8].
